One test has as its system T. cruzi-infected H9C2 cardiomyocytes, high-content imaging. Put plainly: intracellular T. cruzi amastigote inhibition, imaging, H9C2 host cardiomyocytes, host toxicity (AID 1159565).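 Note: infected cells incubated 72 h after plating.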 Conditions: measured here: H9C2 host cell toxicity.
Broadly, the IC50 is the concentration needed to halve the response being measured. On to `Cn1nccc1-c1cc(OC(CN)c2ccccc2)cnc1-c1ccco1` (stereo not drawn), for which the IC50 was over 50000 nM. The same measure, in the same setting: to `CC(C)n1c(-c2nonc2N)nc2cccc(OCCN3CCCC3)c21` belongs 32000 nM; to `O=[N+]([O-])c1ccc(C2=CC(c3ccccc3)=NCCN2)cc1`, 32000 nM. Still for that read-out and setting: to `O=C(Nc1nc(-c2ccc(F)cc2)cs1)c1ccc([N+](=O)[O-])s1` belongs 4000 nM; to `O=C(Nc1ccc(-c2nc3ccccc3c(=O)[nH]2)cc1)c1cccs1`, over 50000 nM; to `O=C1COC(c2ccccc2)(c2ccccc2)CN1C1CCN(Cc2ccc(-n3ccnc3)cc2)CC1`, 32000 nM. Same read-out and setting: to `COc1ccc(Nc2nc(-c3ccccn3)cc(N3CCCC(O)C3)n2)cc1` (stereo not drawn) belongs 4000 nM. As for `CS(=O)(=O)NC1CCC(Nc2ncc(Br)c(Nc3ccccc3C(N)=O)n2)CC1` (stereo not drawn), the IC50 was determined as 500 nM. The same measure, in the same setting: the same measure for `CCN(CC)c1ccc(S(=O)(=O)N(CC)CC)c2nonc12`: over 50000 nM. Same read-out and setting: to `CCOc1ccc(N(C)S(=O)(=O)c2ccc3[nH]cc(C(=O)NC4CCCC4)c(=O)c3c2)cc1` belongs over 50000 nM; to `CC(=O)Nc1nc(-c2cc(C)ccc2C)c(C)s1`, over 50000 nM.

`Cc1cc(Nc2ccc(C#N)c(Cl)c2C)n[nH]1`: the IC50 is over 50000 nM. The same measure, in the same setting: the same measure for `CS(=O)(=O)c1ccc(Nc2nccc(Nc3n[nH]c4ccc(F)cc34)n2)c(F)c1`: 16000 nM. Compound `Cc1ccnc(NS(=O)(=O)c2ccc(NC(=O)c3ccc([N+](=O)[O-])s3)cc2)n1` registered an IC50 of 5000 nM. The same measure, in the same setting: to `CCC(=O)Nc1ccccc1C(=O)Nc1ccccn1` belongs over 50000 nM; to `CC1(Oc2cncc(Cl)c2)CCN(Cc2cc3ccccc3[nH]2)C1` (stereo not drawn), 10000 nM. On the same count and under the same terms, the same measure for `O=C(Nc1nc(-c2ccccn2)cs1)c1ccc(S(=O)(=O)N2CCCCC2)cc1`: 2500 nM. With `Cc1c(C(=O)NCCCCn2ccnc2)oc2c(C)cccc12`, the 50% inhibitory concentration (IC50) is over 50000 nM. Same read-out and setting: the same measure for `Cn1cc(CN2CCN(c3ccc4c(c3)CCN(C(=O)[C@H]3C[C@@H]3c3ccccc3)CC4)CC2)cn1`: 32000 nM; for `Cc1ncsc1CNc1cnc(-c2ccc3c(c2)OCCO3)c(-c2cnn(C)c2)c1`: over 50000 nM; for `CCCCNc1nccc(-c2c(-c3ccc(F)cc3)nn3c(N4CCOCC4)cccc23)n1`: over 50000 nM. Turning to `CN(C)CCN(C)Cc1ccc(F)cc1NS(=O)(=O)c1ccc(Cl)c(Cl)c1`, the half-inhibitory concentration (IC50) came out at 6300 nM. Still for that read-out and setting: to `Cc1nn2c(NCCCO)c3c(nc2c1-c1cccs1)CCC3` belongs over 50000 nM; to `Cc1cc(NC(=O)C2CCCCC2)n(-c2nc3c(c(=O)[nH]2)CCC3)n1`, 2000 nM. The same measure, in the same setting: to `CC(=O)Nc1ccc(-c2cnc(N)c(-c3nc4ccc(F)cc4[nH]3)c2)cc1` belongs 790 nM. The compound `Cc1cc(N2CCc3ccccc3C2)nc(Nc2ccc(S(=O)(=O)N3CCOCC3)cc2)n1` registered a half-inhibitory concentration (IC50) of over 50000 nM. On the same count and under the same terms, to `CCCc1nc2nc(N)nc(N)c2cc1CC` belongs 13000 nM; to `COc1ccc(-c2cnc(NC(=O)c3ccc(F)cc3)n2C)cc1`, over 50000 nM.

Still in this test, the particulars now being: measured here: amastigotes per cell.
`NC(=O)c1cc(F)ccc1Nc1nc(NC2CCC(O)CC2)ncc1Br` (stereo not drawn): the IC50 was 790 nM. Compound `c1ccc2sc(Nc3nc4ncccc4[nH]3)nc2c1` displayed a 50% inhibitory concentration (IC50) of 1300 nM. On the same count and under the same terms, the same measure for `CC(=O)Nc1ccc(CN2CCC(N3CC(c4ccccc4)(c4ccccc4)OCC3=O)CC2)cc1`: 20000 nM; for `O=C(CN(Cc1ccccn1)Cc1ccccn1)NCc1ccc2c(c1)OCO2`: 6300 nM; for `CCC(CC)C(=O)Nc1cccc(C(=O)Nc2nnc(C3CCCCC3)s2)c1`: 16000 nM. `NS(=O)(=O)c1ccc(Nc2nccc(-c3cnn4ncccc34)n2)cc1` gave an IC50 of 790 nM. Consider `COc1ccc2ncc(=O)n(CCN3CCC(NCc4ccc(-c5cccs5)cc4)CC3)c2n1`, for which the IC50 is 160 nM. Still for that read-out and setting: the same measure for `O=C1NCc2cccc(Nc3nc(NC4CCC(O)CC4)ncc3Br)c21` (stereo not drawn): 400 nM; for `O=c1cc(CSc2ccc(Cl)cc2)nc(-c2ccccn2)[nH]1`: 790 nM; for `O=C1OCc2ccc(Nc3nccc(-c4cnn5ncccc45)n3)cc21`: 32 nM. The compound `CCOc1ccc2nc(NC(=O)c3ccc([N+](=O)[O-])s3)sc2c1` came in with an IC50 of 1000 nM. Turning to `Cc1cc(N(C)C)nc(Nc2ccccc2C)n1`, the IC50 came to 500 nM. Compound `COc1ccc(C2CC(c3ccc(NS(C)(=O)=O)cc3)=NN2C(=O)c2cccs2)cc1OC` (stereo not drawn) showed a concentration for half-maximal inhibition (IC50) of 16000 nM. Turning to `N#Cc1ccccc1S(=O)(=O)N1CCN(C(=O)CNC(=O)c2ccc3c(c2)OCO3)CC1`, the half-maximal inhibitory concentration (IC50) was found to be 630 nM. For `CC(=O)Nc1ccc(-c2noc(CC3CCCN(Cc4cccc(F)c4C)C3)n2)cc1` (stereo not drawn), the half-maximal inhibitory concentration (IC50) was 1300 nM.

As for `CC(C)CC(=O)Nc1cc(C2CC2)nn1-c1nc2c(c(=O)[nH]1)CCCC2`, the IC50 is 130 nM. `Cc1cc2cncn2c(C2CCCCN2C(=O)c2cccs2)n1` (stereo not drawn): the IC50 was 63 nM. `O=C(O)[C@H]1C[C@@H]1c1ccc(-c2ccc(CN(CCc3ccccn3)C(=O)C3CCC3)cc2)cc1` showed a concentration for half-maximal inhibition (IC50) of 32000 nM. Same read-out and setting: to `N#Cc1ccc(S(=O)(=O)N2CCC3(CCN(c4ccccc4)C3=O)CC2)cc1` belongs 630 nM. On the same count and under the same terms, the same measure for `CN1CCCN(C(=O)c2ccc(N3CCCC3)cc2Cl)CC1`: 630 nM. `CN(Cc1nc2ccc(C(=O)NCC3CCCCC3)cc2[nH]1)C1CCCc2cccnc21` (stereo not drawn) gave an IC50 of 320 nM.

For the compound `Cc1ccc2ccc(C(Nc3ccccn3)c3cccnc3)c(O)c2n1` (stereo not drawn), the half-inhibitory concentration (IC50) came to 200 nM. Regarding `CS(=O)(=O)N1CCC(Nc2ncc(Br)c(Nc3cccc(F)c3C(N)=O)n2)CC1`, the IC50 was 400 nM. `c1ccc(-c2nc(NCc3ccco3)c3ccccc3n2)nc1` registered a concentration for half-maximal inhibition (IC50) of 4000 nM.

In turn, `COc1ccc2ncc(Cl)c(CCN3CC[C@@H](NCc4cc5c(cn4)OCS5)[C@H](O)C3)c2n1` registered an IC50 of 63 nM. On the same count and under the same terms, to `NC(=O)c1cc(NC(=O)c2ccccc2COc2ccccc2)ccc1Cl` belongs 25000 nM; to `CC(=Cc1ccccc1)CN1CCC(=O)N(Cc2cccnc2)CC1`, 500 nM; to `Cn1nccc1-c1cc(OC(CN)c2ccccc2)cnc1-c1ccco1` (stereo not drawn), 100 nM.

In turn, `CC(C)n1c(-c2nonc2N)nc2cccc(OCCN3CCCC3)c21` gave a 50% inhibitory concentration (IC50) of 25000 nM. On the same count and under the same terms, to `O=[N+]([O-])c1ccc(C2=CC(c3ccccc3)=NCCN2)cc1` belongs 250 nM; to `O=C(Nc1nc(-c2ccc(F)cc2)cs1)c1ccc([N+](=O)[O-])s1`, 160 nM. Compound `O=C(Nc1ccc(-c2nc3ccccc3c(=O)[nH]2)cc1)c1cccs1` displayed an IC50 of over 50000 nM.

In turn, `O=C1COC(c2ccccc2)(c2ccccc2)CN1C1CCN(Cc2ccc(-n3ccnc3)cc2)CC1` came in with a half-maximal inhibitory concentration (IC50) of 500 nM. On to `COc1ccc(Nc2nc(-c3ccccn3)cc(N3CCCC(O)C3)n2)cc1` (stereo not drawn), for which the IC50 is 7900 nM. On the same count and under the same terms, to `CS(=O)(=O)NC1CCC(Nc2ncc(Br)c(Nc3ccccc3C(N)=O)n2)CC1` (stereo not drawn) belongs 2000 nM; to `CCN(CC)c1ccc(S(=O)(=O)N(CC)CC)c2nonc12`, 20000 nM.

`CCOc1ccc(N(C)S(=O)(=O)c2ccc3[nH]cc(C(=O)NC4CCCC4)c(=O)c3c2)cc1` registered an IC50 of 6300 nM. `CC(=O)Nc1nc(-c2cc(C)ccc2C)c(C)s1` displayed a 50% inhibitory concentration (IC50) of 160 nM. Compound `Cc1cc(Nc2ccc(C#N)c(Cl)c2C)n[nH]1` returned an IC50 of 20000 nM.

`CS(=O)(=O)c1ccc(Nc2nccc(Nc3n[nH]c4ccc(F)cc34)n2)c(F)c1` had a 50% inhibitory concentration (IC50) of 4000 nM. On the same count and under the same terms, the same measure for `Cc1ccnc(NS(=O)(=O)c2ccc(NC(=O)c3ccc([N+](=O)[O-])s3)cc2)n1`: 6300 nM. On the same count and under the same terms, to `CCC(=O)Nc1ccccc1C(=O)Nc1ccccn1` belongs over 50000 nM; to `CC1(Oc2cncc(Cl)c2)CCN(Cc2cc3ccccc3[nH]2)C1` (stereo not drawn), 1000 nM. Compound `O=C(Nc1nc(-c2ccccn2)cs1)c1ccc(S(=O)(=O)N2CCCCC2)cc1` yielded an IC50 of 400 nM. Same read-out and setting: the same measure for `Cc1c(C(=O)NCCCCn2ccnc2)oc2c(C)cccc12`: 500 nM.

In turn, `Cn1cc(CN2CCN(c3ccc4c(c3)CCN(C(=O)[C@H]3C[C@@H]3c3ccccc3)CC4)CC2)cn1` registered an IC50 of 790 nM. As to `Cc1ncsc1CNc1cnc(-c2ccc3c(c2)OCCO3)c(-c2cnn(C)c2)c1`, the half-maximal inhibitory concentration (IC50) came out at 20000 nM. Same read-out and setting: to `CCCCNc1nccc(-c2c(-c3ccc(F)cc3)nn3c(N4CCOCC4)cccc23)n1` belongs 1000 nM; to `CN(C)CCN(C)Cc1ccc(F)cc1NS(=O)(=O)c1ccc(Cl)c(Cl)c1`, 2000 nM; to `Cc1nn2c(NCCCO)c3c(nc2c1-c1cccs1)CCC3`, 5000 nM.

As to `Cc1cc(NC(=O)C2CCCCC2)n(-c2nc3c(c(=O)[nH]2)CCC3)n1`, the IC50 worked out at 160 nM. For `CC(=O)Nc1ccc(-c2cnc(N)c(-c3nc4ccc(F)cc4[nH]3)c2)cc1`, the IC50 is over 50000 nM. The same measure, in the same setting: the same measure for `Cc1cc(N2CCc3ccccc3C2)nc(Nc2ccc(S(=O)(=O)N3CCOCC3)cc2)n1`: 25000 nM. The same measure, in the same setting: to `CCCc1nc2nc(N)nc(N)c2cc1CC` belongs 79 nM; to `COc1ccc(-c2cnc(NC(=O)c3ccc(F)cc3)n2C)cc1`, 2000 nM.

The record behind these values is PubChem BioAssay AID1159565 (GlaxoSmithKline (GSK), 2015).
